Laboratory results from ChEMBL document CHEMBL1201862, “PubChem BioAssay data set” (2004).
The source made the active and inactive calls.

Columns and labels:
[1] = molecular target: T1, Calpain-2 catalytic subunit (Sus scrofa, UniProt P43367); experiment: pig calpain II inhibitor potency, dose response, biochemical, fluorogenic peptide substrate (AID 1420); format: functional
T1 sequence (P43367 whole entry): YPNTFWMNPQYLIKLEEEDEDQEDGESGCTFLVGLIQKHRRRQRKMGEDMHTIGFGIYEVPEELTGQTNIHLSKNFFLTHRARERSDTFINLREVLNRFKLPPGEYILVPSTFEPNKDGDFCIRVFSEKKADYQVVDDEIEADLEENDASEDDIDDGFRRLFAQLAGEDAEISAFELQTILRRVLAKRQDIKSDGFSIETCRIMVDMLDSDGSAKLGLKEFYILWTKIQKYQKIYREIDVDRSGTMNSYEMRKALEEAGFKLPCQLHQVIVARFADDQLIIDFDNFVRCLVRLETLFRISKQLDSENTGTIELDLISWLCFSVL

[2] = growth suppression of PTEN-null colon cells, dose response, cell-based, HCT116 PTEN knockout (AID 1047); format: functional;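 further: HCT116 colon tumor cells with PTEN knocked out; cells exposed to compound for 60 hours before readout; potency for loss of cell viability measured by luminescence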
[3] = growth suppression of beta-catenin-knockout colon cells, dose response, cell-based, HCT116, human colon tumor (AID 1045); format: functional;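 further: HCT116 colon tumor cells with beta catenin knocked out; cells exposed to compound for 60 hours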
[4] = molecular target: T2, Endoribonuclease toxin MazF (Escherichia coli K-12, UniProt P0AE70); experiment: fluorescent RNA oligo signal without MazF, dose response, counter-screen for MazEF activator project, biochemical, fluorescence, single-stranded RNase substrate (AID 588502); format: functional
T2 sequence (P0AE70 whole entry): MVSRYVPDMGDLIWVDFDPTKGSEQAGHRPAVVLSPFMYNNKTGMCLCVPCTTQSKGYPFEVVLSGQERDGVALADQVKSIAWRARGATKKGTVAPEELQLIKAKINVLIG

[5] = molecular target: T2, Endoribonuclease toxin MazF; experiment: MazF toxin RNase activators, dose response, biochemical, fluorescence, single-stranded RNA substrate, uHTS hits (AID 588481); format: functional
[6] = molecular target: Voltage-dependent T-type calcium channel subunit alpha-1H (Homo sapiens, UniProt O95180); format: functional;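 further: channel activity triggered by adding a high calcium stimulation buffer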
Chain of Voltage-dependent T-type calcium channel subunit alpha-1H (O95180 whole entry): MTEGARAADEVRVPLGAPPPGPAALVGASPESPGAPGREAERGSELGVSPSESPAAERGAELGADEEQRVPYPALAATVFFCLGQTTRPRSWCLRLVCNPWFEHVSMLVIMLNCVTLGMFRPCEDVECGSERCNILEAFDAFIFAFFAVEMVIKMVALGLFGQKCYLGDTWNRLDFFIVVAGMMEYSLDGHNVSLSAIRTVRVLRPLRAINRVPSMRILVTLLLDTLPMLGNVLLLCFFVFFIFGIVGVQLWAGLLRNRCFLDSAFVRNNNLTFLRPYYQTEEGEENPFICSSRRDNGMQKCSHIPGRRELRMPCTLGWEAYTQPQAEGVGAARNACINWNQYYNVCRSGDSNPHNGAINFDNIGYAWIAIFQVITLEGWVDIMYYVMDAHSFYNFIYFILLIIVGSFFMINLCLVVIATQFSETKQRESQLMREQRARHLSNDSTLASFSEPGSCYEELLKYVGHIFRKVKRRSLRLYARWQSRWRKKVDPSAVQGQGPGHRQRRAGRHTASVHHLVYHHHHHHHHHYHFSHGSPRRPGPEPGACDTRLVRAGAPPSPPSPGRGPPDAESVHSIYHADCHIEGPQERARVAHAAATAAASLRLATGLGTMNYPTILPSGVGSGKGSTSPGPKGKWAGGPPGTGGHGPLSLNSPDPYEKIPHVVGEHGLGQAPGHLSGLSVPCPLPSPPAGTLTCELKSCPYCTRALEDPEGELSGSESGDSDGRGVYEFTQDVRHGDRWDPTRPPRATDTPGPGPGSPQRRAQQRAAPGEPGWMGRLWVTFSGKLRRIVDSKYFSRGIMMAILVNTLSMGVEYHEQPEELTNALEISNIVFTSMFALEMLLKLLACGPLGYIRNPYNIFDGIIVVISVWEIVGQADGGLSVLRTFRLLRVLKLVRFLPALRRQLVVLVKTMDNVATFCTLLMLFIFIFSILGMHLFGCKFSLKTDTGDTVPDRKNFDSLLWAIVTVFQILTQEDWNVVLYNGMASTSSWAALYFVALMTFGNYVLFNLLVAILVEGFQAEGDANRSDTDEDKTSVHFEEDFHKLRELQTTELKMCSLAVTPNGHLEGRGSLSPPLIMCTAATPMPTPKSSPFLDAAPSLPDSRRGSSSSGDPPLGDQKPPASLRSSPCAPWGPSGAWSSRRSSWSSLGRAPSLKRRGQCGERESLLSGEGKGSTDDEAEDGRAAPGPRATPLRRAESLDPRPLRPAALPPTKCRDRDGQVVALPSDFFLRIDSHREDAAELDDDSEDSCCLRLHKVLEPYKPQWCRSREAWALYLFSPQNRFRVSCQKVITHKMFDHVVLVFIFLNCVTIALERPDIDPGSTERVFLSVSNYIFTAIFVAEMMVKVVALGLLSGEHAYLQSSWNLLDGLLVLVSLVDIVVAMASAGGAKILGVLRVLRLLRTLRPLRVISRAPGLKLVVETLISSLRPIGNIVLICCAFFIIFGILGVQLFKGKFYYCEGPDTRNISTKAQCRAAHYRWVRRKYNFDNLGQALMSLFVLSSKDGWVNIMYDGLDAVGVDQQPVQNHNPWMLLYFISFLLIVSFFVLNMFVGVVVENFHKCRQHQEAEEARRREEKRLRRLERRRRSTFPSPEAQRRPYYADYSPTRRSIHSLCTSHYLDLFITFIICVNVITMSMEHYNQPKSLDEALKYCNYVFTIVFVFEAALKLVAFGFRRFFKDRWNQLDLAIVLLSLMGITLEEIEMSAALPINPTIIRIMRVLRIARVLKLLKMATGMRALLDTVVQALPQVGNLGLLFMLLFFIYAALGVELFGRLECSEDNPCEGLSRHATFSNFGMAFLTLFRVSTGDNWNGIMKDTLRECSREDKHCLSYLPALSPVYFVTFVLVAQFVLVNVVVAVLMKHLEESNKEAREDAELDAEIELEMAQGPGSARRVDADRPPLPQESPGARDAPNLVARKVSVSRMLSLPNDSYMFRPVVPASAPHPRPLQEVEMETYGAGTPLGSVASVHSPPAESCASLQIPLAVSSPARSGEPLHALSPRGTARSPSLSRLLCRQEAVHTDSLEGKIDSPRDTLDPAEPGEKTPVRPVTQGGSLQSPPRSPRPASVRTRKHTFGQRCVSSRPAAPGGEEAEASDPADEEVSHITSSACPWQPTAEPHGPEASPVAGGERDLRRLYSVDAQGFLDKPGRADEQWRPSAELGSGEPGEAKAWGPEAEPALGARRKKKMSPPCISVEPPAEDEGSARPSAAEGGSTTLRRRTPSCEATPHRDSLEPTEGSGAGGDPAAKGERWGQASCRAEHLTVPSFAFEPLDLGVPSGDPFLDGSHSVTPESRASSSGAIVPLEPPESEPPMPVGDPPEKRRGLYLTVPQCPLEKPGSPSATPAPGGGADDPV

[7] = molecular target: T3, Ubiquitin-conjugating enzyme E2 N (Homo sapiens, UniProt P61088); format: functional;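 further: Dose-response confirmation in a TR-FRET assay detecting UBC13-driven polyubiquitin chain formation, inhibition measured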
T3 sequence (P61088 whole entry): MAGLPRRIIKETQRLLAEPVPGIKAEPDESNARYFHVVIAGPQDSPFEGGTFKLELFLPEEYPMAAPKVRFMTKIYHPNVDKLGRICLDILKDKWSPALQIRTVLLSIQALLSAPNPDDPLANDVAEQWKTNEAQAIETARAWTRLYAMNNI

[8] = microbe, parasite or virus in culture; format: functional; conditions: Mycobacterium tuberculosis
H9c2 = experiment: cells; format: functional, cell-based; conditions: Rattus norvegicus, H9c2, Myocardium;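 further: confirmatory concentration-response retest of ultra-high-throughput screening hits for modulation of myocardial damage; cell death induced by hydrogen peroxide oxidative stress; compound pretreatment for 60 min then peroxide exposure for 2 h; potency is for protecting the cells against peroxide damage rather than for killing them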
[9] = Luminescence Cell-Based Dose Retest to Confirm Inhibitors of Cancer Stem Cells. [Related pubchem assays (depositor defined):AID2717, AID2721]; format: functional; conditions: Homo sapiens
[10] = cytotoxicity toward NIH3T3 fibroblasts, dose response, counter-screen, cell-based, ATP luminescence, mouse fibroblasts (AID 2010); format: functional;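 further: cells exposed to compound for about 90 hours before reading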
[11] = inhibitors of intracellular T. cruzi replication, confirmation, NIH3T3 host cells, beta-gal luminescence (AID 2044); format: functional, cell-based;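 further: intracellular parasites grown in NIH/3T3 mouse fibroblasts as host cells; luminescent beta-galactosidase reporter signal from transgenic T. cruzi replicating inside host cells; inhibitors lower the luminescence signal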
[12] = molecular target: T4, Carboxy-terminal domain RNA polymerase II polypeptide A small phosphatase 1 (Homo sapiens, UniProt Q9GZU7); experiment: inhibitors of CTDSP1, concentration-response testing, biochemical assay, absorbance-based, actives from ultra-high-throughput screening (AID 540297); format: functional
T4 sequence (Q9GZU7 whole entry): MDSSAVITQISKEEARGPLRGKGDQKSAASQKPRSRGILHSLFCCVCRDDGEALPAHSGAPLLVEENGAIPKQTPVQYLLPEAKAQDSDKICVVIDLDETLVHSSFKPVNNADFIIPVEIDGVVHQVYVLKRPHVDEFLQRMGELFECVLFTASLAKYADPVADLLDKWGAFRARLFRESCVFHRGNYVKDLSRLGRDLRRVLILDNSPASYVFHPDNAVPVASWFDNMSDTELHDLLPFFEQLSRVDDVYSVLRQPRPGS

Cytochrome P450 1A2 = molecular target: T5, Cytochrome P450 1A2 (Homo sapiens, UniProt P05177);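 further: PubChem cytochrome P450 panel assay, CYP1A2 panel member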
T5 sequence (P05177 whole entry): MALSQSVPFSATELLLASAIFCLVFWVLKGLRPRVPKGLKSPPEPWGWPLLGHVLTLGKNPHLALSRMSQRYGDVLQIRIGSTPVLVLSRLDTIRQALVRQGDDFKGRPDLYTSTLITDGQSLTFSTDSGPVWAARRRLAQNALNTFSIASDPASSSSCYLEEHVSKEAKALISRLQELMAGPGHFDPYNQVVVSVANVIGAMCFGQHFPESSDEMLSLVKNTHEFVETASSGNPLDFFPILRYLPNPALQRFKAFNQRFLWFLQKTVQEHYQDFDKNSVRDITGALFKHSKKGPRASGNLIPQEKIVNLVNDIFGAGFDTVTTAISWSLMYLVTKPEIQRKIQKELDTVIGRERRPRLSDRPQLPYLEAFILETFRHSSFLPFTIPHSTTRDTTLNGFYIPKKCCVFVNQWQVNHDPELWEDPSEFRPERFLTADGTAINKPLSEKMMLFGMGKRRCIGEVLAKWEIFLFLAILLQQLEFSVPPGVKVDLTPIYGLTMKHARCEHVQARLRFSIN

Q: Which IC50 [1] does the source give for `O=C(CCC(=O)N1CCN(S(=O)(=O)c2ccc(Cl)cc2)CC1)Nc1cccc(Br)c1` here?
A: Its IC50 is 24.9 µM (not active).

Q: Which EC50 [2] does the source give for `O=C(/C=C/c1ccc(Br)cc1)c1ccco1` here?
A: Its EC50 is 11.5 µM (active).

Q: What about the EC50 [3] of the same compound?
A: The EC50 was 10.9 µM (active).

Q: What does the source list for `Cc1cc(C)c(C#N)c(SCC(=O)c2cccs2)n1`?
A: EC50 [4]: > 99 µM (inactive); EC50 [5]: 18 µM (active)

Q: Which EC50 [6] does the source give for `Nc1c(C(=O)C2CC2)sc2nc(-c3ccccc3)cc(C(F)(F)F)c12` here?
A: Its EC50 is 2.51 µM (active).

Q: For `CCOc1ccc(C2CC(c3cccc(OC)c3OC)n3nnnc3N2)cc1Cl` (stereo not drawn), which EC50 [6] is on record?
A: Its EC50 is 2.66 µM (active).

Q: For `CCC(=O)N1c2ccc(C)cc2C2=NN=C(S)NC21O` (stereo not drawn), which IC50 [7] is on record?
A: Its IC50 is > 20 µM (inactive).

Q: With `CCOc1ccc(-c2n[nH]cc2Oc2cccc(OC)c2)c(O)c1` as the compound, how does the IC50 [7] read?
A: Its IC50 is > 20 µM (inactive).

Q: For `Cc1ccc(-n2nnnc2SCc2nc3sc(C)c(C)c3c(=O)[nH]2)cc1`, which EC50 [4] is on record?
A: Its EC50 is > 99 µM (inactive).

Q: What about the EC50 [5] of the same compound?
A: The EC50 was > 99 µM (inactive).

Q: With `Cn1c(N)c(C(=O)COC(=O)CCCc2nc3ccccc3s2)c(=O)n(C)c1=O` as the compound, how does the IC50 [1] read?
A: Its IC50 is > 50 µM (not active).

Q: For `Cc1ccc(-c2csc(NC(=O)c3cccc(N4C(=O)CCC4=O)c3)n2)o1`, which EC50 [6] is on record?
A: The EC50 was 3.78 µM (active).

Q: For `O=C(CSc1nc(N2CCCCC2)nc(N2CCCCC2)n1)N1CCN(c2ccccc2)CC1`, which EC50 [6] is on record?
A: Its EC50 is 5.36 µM (active).

Q: For `COc1ccc(N2CCN(Cc3cc4c(cc3O)CCC4)CC2)cc1`, which CC50 [8] is on record?
A: Its CC50 is > 40 µM (active).

Q: Which EC50 [6] does the source give for `COc1ccccc1N1CCN(C(=O)C(Sc2ccccc2)c2ccccc2)CC1` (stereo not drawn) here?
A: Its EC50 is 4.93 µM (active).

Q: For `Cc1cc(NS(=O)(=O)c2ccc(NC(=S)NC(=O)c3ccc(C(C)(C)C)cc3)cc2)no1`, which IC50 [1] is on record?
A: Its IC50 is 26.1 µM (not active).

Q: With `CC(C)COP(=O)(OCC(C)C)C(Nc1ccccc1)c1ccc2c(c1)OCO2` (stereo not drawn) as the compound, how does the IC50 (H9c2) read?
A: Its IC50 is > 79 µM (inactive).

Q: And the IC50 [1]?
A: The IC50 was 11.4 µM (not active).

Q: What does the source list for `CCn1c(/C=C/c2c(C)n(CC)c3ccccc23)nc2ccccc2c1=O`?
A: EC50 [4]: > 99 µM (inactive); EC50 [5]: > 99 µM (inactive)

Q: Which AC50 [9] does the source give for `O=c1c2cc(NC(=S)NCCCN3CCC(Cc4ccccc4)CC3)ccc2nc2n1CCCCC2` here?
A: The AC50 was 9.58 µM (active).

Q: And the EC50 [10]?
A: Its EC50 is > 60 µM (not active).

Q: What about the EC50 [11] of the same compound?
A: The EC50 was 2.09 µM (active).

Q: And the IC50 [7]?
A: Its IC50 is > 20 µM (inactive).

Q: For `CC(=O)C(C[N+]1(C)CCCCC1)=NO`, which IC50 [12] is on record?
A: The IC50 was 3.4 µM (active).

Q: With `COc1ccc(-c2nnc(SCC(=O)Nc3cc(F)ccc3C)o2)cc1` as the compound, how does the IC50 [7] read?
A: Its IC50 is > 20 µM (inactive).

Q: With `COc1ccc(Br)cc1/C=C(\C(=O)O)c1ccc(S(=O)(=O)N2CCCC2)s1` as the compound, how does the IC50 [12] read?
A: Its IC50 is 8.63 µM (active).

Q: Which IC50 [12] does the source give for `O=C(NCc1ccco1)c1ccc2c(=O)n(Cc3ccco3)c(SCC(=O)N3CCCC3)nc2c1` here?
A: The IC50 was 6.12 µM (active).

Q: Which results are given for `CCN(CC)S(=O)(=O)c1ccc(Nc2nc3ccccc3n3nnnc23)cc1`?
A: IC50 (H9c2): > 79 µM (inactive); EC50 [2]: 22.1 µM (active); EC50 [3]: 35.3 µM (active)

Q: With `COC(=O)c1[nH]c2cc(OC)ccc2c1NC(=O)CN1CCN(c2cccc(C)c2)C(C)C1` (stereo not drawn) as the compound, how does the CC50 [8] read?
A: The CC50 was 30.6 µM (active).

Q: For `CN1CCN(Cc2nc3ccccc3c(=O)n2Cc2nc(-c3ccc4ccccc4c3)cs2)CC1`, which AC50 [9] is on record?
A: The AC50 was 4.28 µM (active).

Q: What about the CC50 [8] of the same compound?
A: Its CC50 is 6.44 µM (active).

Q: What about the EC50 [2] of the same compound?
A: The EC50 was 4.11 µM (active).

Q: And the EC50 [3]?
A: Its EC50 is 4.02 µM (active).

Q: With `Cc1ccc(CCNC(=O)c2ccc3nc4ccccc4c(=O)n3c2)cc1` as the compound, how does the IC50 [12] read?
A: Its IC50 is 14.2 µM (active).

Q: Which results are given for `O=C(N/N=C/c1cccc(OC2CSC2)c1)c1ccccc1O`?
A: IC50 [12]: 6.78 µM (active); AC50 (Cytochrome P450 1A2): 3.16 µM (inconclusive)

Q: With `C/C(=N\NC(=O)CC(C)C)c1c(C(F)(F)F)nn(-c2nc3ccccc3s2)c1O` as the compound, how does the CC50 [8] read?
A: Its CC50 is 37.4 µM (active).

Q: With `O=[N+]([O-])c1ccc(/C=C/c2ccc3cccc(O)c3n2)cc1` as the compound, how does the EC50 [4] read?
A: Its EC50 is > 99 µM (inactive).

Q: And the EC50 [5]?
A: Its EC50 is > 99 µM (inactive).
